Patent US20110124600A1, “Use of Dopamine partial agonists for treament of the restless leg syndrome and corresponding pharmaceutical preparation” (priority 2002, published 2011)
Entries after “also recorded” stand apart in the source; their conditions may differ.

How the values were obtained:
[1] = tested on: restless leg syndrome (RLS) patients; conditions: prior art clinical studies, cited from earlier work; for therapeutic effectiveness in RLS: levodopa perorally in the evening, 100 to 600 mg
[2] = tested on: restless leg syndrome (RLS) patients; experiment: Oral therapy of RLS patients with terguride (patient histories); type: in vivo, human
Source text: The invention is explained in more detail below based on examples in the form of patient histories.

[3] = cited from earlier work; for plasma half-life: in vivo
[4] = tested on: sleeping pattern, REM phases; experiment: Effect of oral terguride on sleeping pattern / sleep profile; type: in vivo, human; conditions: 0.5 mg p.o. up to 50 mg
Protocol: A dosage of 0.5-2.5 mg is preferred. In the therapy of RLS, terguride in […] dosages apparently acts as a partial agonist, its acting especially on RLS symptoms as a complete agonist, but has little or no effect on the other intact dopaminergic control circuits that control vomiting, orthostasis and the sleep profile. Thus, there is no need to specially change the dosage with a view to side effects. At the same time, however, the desired effect begins very quickly, which is very useful if RLS symptoms occur in the evening, and leads to the patient being unable to fall asleep. Finally, if a longer duration of action is desirable, the dosage of 0.5, 1 mg or even higher can be increased without disturbing the sleep profile.

In the case of N[C@@H](Cc1ccc(O)c(O)c1)C(=O)O [Levodopa], the “tolerance / side effects in RLS therapy” value [1] is given as “generally well tolerated” and the “therapeutic effectiveness in RLS” value [1] is given as “brief effectiveness”.
For CCCN[C@H]1CCc2nc(N)sc2C1 [Pramipexol], the “therapeutic effectiveness in RLS” value [1] is listed as “almost complete suppression of symptoms”.
For CCCN(CCC)CCc1cccc2c1CC(=O)N2 [Ropinirole], the “tolerance / side effects in RLS therapy” value [1] is given as “fewer side effects” and the “therapeutic effectiveness in RLS” value [1] is given as “less effective”.
In the case of OC(CCN1CCCCC1)(c1ccccc1)C1CC2C=CC1C2 (stereo not shown) [biperiden], the “effect of previous treatment on RLS” value ([2]; Patient 2, previous treatment) is reported as “little effect”.
For CC(C)C[C@H]1C(=O)N2CCC[C@H]2[C@]2(O)O[C@](NC(=O)[C@@H]3C=C4c5cccc6[nH]c(Br)c(c56)C[C@H]4N(C)C3)(C(C)C)C(=O)N12 [bromocriptine], the “share of perorally administered dose reaching systemic blood circulation” value ([3]; peroral) is given as 6%.
In the case of C=CCN1C[C@H](C(=O)N(CCCN(C)C)C(=O)NCC)C[C@@H]2c3cccc4[nH]cc(c34)C[C@H]21 [cabergoline], the plasma half-life [3] is given as “more than 40 hours”.
In the case of NC(=O)N1c2ccccc2C=Cc2ccccc21 [carbamazepine], the “therapeutic effectiveness in RLS” value [1] is listed as “especially effective in the control of painful RLS symptoms” and the “success of previous RLS treatments” value ([2]; Patient 3) is listed as “only moderately successful”.
In the case of NCC1(CC(=O)O)CCCCC1 [gabapentin], the “therapeutic effectiveness in RLS” value [1] is listed as “especially effective in the control of painful RLS symptoms”.
For [Mg+2] [magnesium], the “success of previous RLS treatments” value ([2]; Patient 3) was “only moderately successful”.
For CCCN1C[C@H](CSC)C[C@@H]2c3cccc4[nH]cc(c34)C[C@H]21 [pergolide], the plasma half-life [3] is listed as “more than 27 hours” and the “course of RLS after switch from terguride” value ([2]; Patient 2, later switched to pergolide) is listed as “no deterioration”.
In the case of CCN(CC)C(=O)N[C@H]1C[C@@H]2c3cccc4[nH]cc(c34)C[C@H]2N(C)C1 [terguride], the “adverse effect on REM phases” value [4] is reported as “no adverse effect”, the “adverse effects on the sleeping pattern” value [4] is reported as “no adverse effects whatsoever” and the Epworth scale ([2]; Patient 1, daily dosage 1.5 mg orally) is reported as 12. For the same compound, the side effects ([2]; Patient 1, daily dosage 1.5 mg orally, long-term therapy) was “no side effects”, the “improvement of RLS” value ([2]; Patient 2, familial RLS, 1 mg orally) was “very distinct improvement” and the side effects ([2]; Patient 2, 1 mg / 0.5 mg orally) was “no side effects”. For the same compound, the “effectiveness in RLS” value ([2]; Patient 2, further therapy with 0.5 mg) was “partial effectiveness”, the “course of RLS in withdrawal trial” value ([2]; Patient 2, withdrawal of terguride) was “immediate deterioration” and the “success of RLS treatment” value ([2]; Patient 3 (person two), 1 mg orally for 3 months) was “very good success”. For the same compound, the side effects ([2]; Patient 3, 1 mg orally for 3 months) was “no side effects”, the “effectiveness on renewed use after stopping when RLS symptoms recurred” value ([2]; compared with first administration) was “same effectiveness” and the “tolerance in treatment of RLS” value ([2]; general statement) was “very good tolerance”. The “effectiveness in oral therapy of RLS” value ([2]; oral, general statement) was “exceptionally effective; also recorded: great effectiveness”.
In the case of Cc1ccc(-c2nc3ccc(C)cn3c2CC(=O)N(C)C)cc1 [zolpidem], the “success of previous RLS treatments” value ([2]; Patient 3) is reported as “only moderately successful”.
